Measured values: publication PMC12274739, “Differential substrate degradation by super-degron: EGFP in wild-type mouse cells, PD-1 requires CRBN humanization” (iScience, 2025)
Where two headings read alike, the source gives them in different places.

Experiments:
[1] = molecular target: EGFP-IKZF (UniProt P42212+Q8C7D2, F64L/H231L/INS1V/S65T); type: cell-based, mouse; conditions: stable
[2] = molecular target: EGFP-ZFP91 (UniProt P42212+Q8C7D2, F64L/H231L/INS1V/S65T); type: cell-based, mouse; conditions: for Bottom, EGFP-ZFP91 / LogDC50, EGFP-ZFP91: stable
[3] = CrbnI391V/I391V mESCs, Figure 5E

Structure (SMILES)	Bottom, EGFP-IKZF [1, 3]	LogDC50, EGFP-IKZF [1, 3]	Bottom, EGFP-ZFP91 [2, 3]	LogDC50, EGFP-ZFP91 [2, 3]	Bottom, EGFP-IKZF ([1]; B6J-S1 mESCs, Figure 5B)	LogDC50, EGFP-IKZF ([1]; B6J-S1 mESCs, Figure 5B)	Bottom, EGFP-ZFP91 ([2]; B6J-S1 mESCs, Figure 5B)	LogDC50, EGFP-ZFP91 ([2]; B6J-S1 mESCs, Figure 5B)	degradation of EGFP-ZFP91 ([2]; CrbnI391V/I391V mESCs)
Nc1cccc2c1C(=O)N(C1CCC(=O)NC1=O)C2=O (stereo not shown) [POM, pomalidomide]	0.1316	-2.292 μM	0.1492	-2.052 μM					
O=C1CC[C@H](N2Cc3c(OCc4ccc(CN5CCOCC5)cc4)cccc3C2=O)C(=O)N1 [IBR, iberdomide]	0.2424	-3.194 μM	0.1665	-3.079 μM	1.103	-1.536 μM	1.006	-1.679 μM	efficiently degraded
